Experimental data from patent EP0256847B1, “Oxytocin and vasopressin antagonists” (Merck & Co., Inc., priority 1986, dated 1988).
*1 amine or outer side, *2 acyl side, *3 side chain or, on linkers, in order; H or OH if unused. Where a SMILES comes first, the peptide text is derived from it. [ ]: non-standard residue; d: D form. ξ: configuration not given here. X2 = O=C([C@@H]1CCCNN1[*:1])[*:2]; ξN(OH)Ile(3ξ) = CCC(C)C(NO)C(=O)O; X1 = O=C([C@H]1CCCNN1[*:1])[*:2]; dNMeF = CN[C@H](Cc1ccccc1)C(=O)O; NMeF = CN[CH](Cc1ccccc1)C(=O)O; X3 = O=C(C1CCCNN1[*:1])[*:2]

Molecular target: oxytocin receptor
Assay: [³H]Oxytocin binding assay, crude membrane preparation of rat uterus
Details: concentration of test compound to inhibit [³H]oxytocin binding by 50%; rat uterus membranes; read-out: IC₅₀ [³H]OT (uterus)
Excerpt: Oxytocin receptors have been identified in mammalian uterine tissue through the use of in vitro radioligand binding assays. These receptor binding sites mediate the contractile response of the uterine myometrium to oxytocin. […] The assay uses a crude membrane preparation of rat uterus as the source of oxytocin receptors. […]

Structure (SMILES) | IC50 [nM]
CC[C@H](C)[C@@H]1NC(=O)[C@@H](Cc2ccccc2)NC(=O)[C@@H]2CCCN2C(=O)[C@@H](Cc2ccccc2)N(C)C(=O)[C@@H]2CCCNN2C(=O)[C@H]2CCCNN2C1=O [Example 9] (cyclo([X1][X2][dNMeF]P[dF]I)) | 170 ± 15
CCC(C)C1C(=O)N2NCCCC2C(=O)N2NCCCC2C(=O)N(C)C(Cc2ccccc2)C(=O)N2CCCC2C(=O)NC(Cc2ccccc2)C(=O)N1O (centres unmarked) [Formula I] (cyclo([ξN(OH)Ile(3ξ)][X3][X3][NMeF]PF); configuration not given here) | 370 ± 70
